Source: patent publication US10323041B2, “Bicyclic derivatives, a process for their preparation and pharmaceutical compositions containing them” (LES LABORATOIRES SERVIER, priority 2015, dated 2019)
Like-named read-outs stand apart in the source and are kept apart here.

Molecular target: Mcl-1 protein (Homo sapiens, UniProt Q07820)
Experiment: Inhibition of Mcl-1 by the fluorescence polarisation technique
Format: binding
Description: The relative binding potency of each compound was determined via fluorescence Polarisation (FP). The method utilised a Fluorescein labelled ligand Fluorescein-βAla-Ahx-[A-REIGAQLRRMADDLNAQY (SEQ ID NO: 1)]-OH; mw 2,765) which binds to the Mcl-1 protein (such that corresponds to the UniProtKB® primary accession number: Q07820) leading to an increased anisotropy measured in milli-polarisation (mP) units using a reader. The addition of a compound which binds competitively to the same site as the ligand will result in a greater proportion of unbound ligand in the system indicated by a decrease in mP units.
Method 1: An 11 point serial dilution of each compound was prepared in DMSO and 2 μl transferred into flat bottomed, low binding, 384-well plate (final DMSO concentration 5%). 38 μl of buffer (10 mM 4-(2-hydroxyethyl)-1-piperazineethanesulfonic acid [HEPES], 150 mM NaCl, 0.05% Tween 20, pH 7.4), containing the Fluorescein labelled ligand (final concentration 1 nM) and Mcl-1 protein (final concentration 5 nM) was then added.
(§1) Assay plates were incubated ˜2 hours at room temperature before FP was measured on a […] Synergy2 reader (Ex. 528 nm, Em. 640 nm, Cut off 510 nm) and mP units calculated. The binding of increasing doses of test compound was expressed as a percentage reduction in mP compared to a window established between ‘5% DMSO only’ and ‘100% inhibition’ controls. 11-point dose response curves were plotted with XL-Fit software using a 4-Parameter Logistic Model (Sigmoidal Dose-Response Model) and the inhibitory concentrations that gave a 50% reduction in mP (IC50) were determined. Results obtained using Method 1 are presented in Table 1 below; IC50 of Mcl-1 inhibition obtained using Method 1 are not underlined.
Method 2: An 11 point serial dilution of each compound was prepared in DMSO and 2 μl transferred into flat bottomed, low binding, 384-well plate (final DMSO concentration 5%). 38 μl of buffer (20 mM Na2HPO4, 1 mM EDTA, 50 mM NaCl, pH 7.4), containing the Fluorescein labelled ligand (final concentration 10 nM) and Mcl-1 protein (final concentration 10 nM) was then added.
as §1, with “inhibition’ controls (50 μM unlabelled ligand).” for “inhibition’ controls.”, “Method 2” for “Method 1”, “are” for “are not”

[1] = Method 1 (not underlined) or Method 2 (underlined), underlining not visible, first value where cell prints two, read-out: IC50 (M) Mcl-1 FP
[2] = @ 50 μM test compound, partial inhibitors
[3] = @ 50 μM test compound, partial inhibitors, 50 µM
[4] = @ 10 μM test compound, partial inhibitors

Mcl-1 protein, sequence (Q07820 whole entry): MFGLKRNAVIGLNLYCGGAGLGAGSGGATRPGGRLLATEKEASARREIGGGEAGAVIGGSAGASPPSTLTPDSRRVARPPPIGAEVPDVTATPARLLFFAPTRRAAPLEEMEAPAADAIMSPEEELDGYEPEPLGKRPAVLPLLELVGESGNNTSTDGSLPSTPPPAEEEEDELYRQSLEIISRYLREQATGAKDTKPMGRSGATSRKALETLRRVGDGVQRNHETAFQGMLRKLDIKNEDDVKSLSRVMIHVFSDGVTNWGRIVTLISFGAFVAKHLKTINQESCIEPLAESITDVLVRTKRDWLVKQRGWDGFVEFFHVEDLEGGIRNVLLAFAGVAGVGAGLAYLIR

| IC50 [1] [M] | Compound | further results |
| --- | --- | --- |
| 1.6e-06 | COc1ccccc1-c1nccc(COc2ccccc2CC(Oc2cccc3sc(-c4ccc(F)cc4)c(-c4ccc(OCCN5CCN(C)CC5)c(Cl)c4C)c23)C(=O)O)n1 (single isomer, unassigned) [Example 52] |  |
| 1.7e-07 | COc1ccccc1-c1nccc(COc2ccccc2CC(Oc2cccc3oc(-c4ccc(F)cc4)c(-c4ccc(OCCN5CCN(C)CC5)c(Cl)c4C)c23)C(=O)O)n1 (single isomer, unassigned) [Example 63] |  |
| 1.2e-06 | COc1ccccc1-c1nccc(COc2ccccc2CC(Oc2cccc3c2c(-c2ccc(OCCN4CCN(C)CC4)c(Cl)c2C)c(-c2ccc(F)cc2)n3C)C(=O)O)n1 (single isomer, unassigned) [Example 68] |  |
| 3.9e-08 | CCc1sc2cccc(OC(Cc3ccccc3)C(=O)O)c2c1-c1ccc(O)c(Cl)c1C [Example 49, (2R)-2-{[(3Sa)-3-(3-chloro-4-hydroxy-2-methylphenyl)-2-ethyl-1-benzothiophen-4-yl]oxy}-3-phenylpropanoic acid] |  |
| 1.2e-07 | CCc1sc2cccc(CC(Cc3ccccc3)C(=O)O)c2c1-c1ccc(O)c(Cl)c1C (stereo not drawn) [Example 54, 2-benzyl-3-[3-(3-chloro-4-hydroxy-2-methylphenyl)-2-ethyl-1-benzothiophen-4-yl]propanoic acid] |  |
| 4.7e-08 | COc1ccccc1CC(Oc1cccc2cc(-c3ccc(F)cc3)n(-c3ccc(OCCN4CCN(C)CC4)c(Cl)c3C)c12)C(=O)O (stereo not drawn) [Example 56] |  |
| 1.7e-07 | COc1ccccc1CC(Oc1cccc2c(Cl)c(-c3ccc(F)cc3)n(-c3ccc(OCCN4CCN(C)CC4)c(Cl)c3C)c12)C(=O)O [Example 57, (2R)-2-{[3-chloro-(1Sa)-1-{3-chloro-2-methyl-4-[2-(4-methylpiperazin-1-yl)ethoxy]phenyl}-2-(4-fluorophenyl)-1H-indol-7-yl]oxy}-3-(2-methoxyphenyl)propanoic acid] |  |

The remaining lines, values behind:

| Compound | IC50 [1] [M] | further results |
| --- | --- | --- |
| Cc1c(-c2c(-c3ccc(F)cc3)oc3ncnc(O[C@H](Cc4ccccc4OCc4ccnn4C(C)(C)C)C(=O)O)c23)ccc(OCCN(C)C)c1Cl [Example 6, (2R)-3-{2-[(1-tert-butyl-1H-pyrazol-5-yl)methoxy]phenyl}-2-{[5-{3-chloro-4-[2-(dimethylamino)ethoxy]-2-methylphenyl}-6-(4-fluorophenyl)furo[2,3-d]pyrimidin-4-yl]oxy}propanoic acid] | 8.9e-09 |  |
| Cn1cc(-c2cccc3ccccc23)c2c(N[C@H](Cc3ccccc3)C(=O)O)ncnc21 [Example 10, N-[7-methyl-5-(naphthalen-1-yl)-7H-pyrrolo[2,3-d]pyrimidin-4-yl]-D-phenylalanine] | 1.8e-05 |  |
| O=C(O)[C@@H](Cc1ccccc1)Nc1ncnc2[nH]cc(-c3cccc4ccccc34)c12 [Example 11, N-[5-(naphthalen-1-yl)-7H-pyrrolo[2,3-d]pyrimidin-4-yl]-D-phenylalanine] | 3.4e-05 |  |
| CCc1c(-c2cccc(Cl)c2C)c2c(NC(Cc3ccccc3)C(=O)O)ncnc2n1C [Example 20, N-[(5Ra)-5-(3-chloro-2-methylphenyl)-6-ethyl-7-methyl-7H-pyrrolo[2,3-d]pyrimidin-4-yl]-D-phenylalanine] |  | percentage fluorescence polarization inhibition [2]: 64.8% @ 50 μM |
| CCc1c(-c2cccc(Cl)c2C)c2c(NC(Cc3ccccc3)C(=O)O)ncnc2n1C [Example 21, N-[(5Sa)-5-(3-chloro-2-methylphenyl)-6-ethyl-7-methyl-7H-pyrrolo[2,3-d]pyrimidin-4-yl]-D-phenylalanine] | 8.7e-06 |  |
| CCc1c(-c2cccc(Cl)c2C)c2c(NC(Cc3ccccc3)C(=O)O)ncnc2n1CC1CC1 [Example 22, N-[(5Ra)-5-(3-chloro-2-methylphenyl)-7-(cyclopropylmethyl)-6-ethyl-7H-pyrrolo[2,3-d]pyrimidin-4-yl]-D-phenylalanine] |  | percentage fluorescence polarization inhibition [2]: 74.2% @ 50 μM |
| CCc1c(-c2cccc(Cl)c2C)c2c(NC(Cc3ccccc3)C(=O)O)ncnc2n1CC1CC1 [Example 23, N-[(5Sa)-5-(3-chloro-2-methylphenyl)-7-(cyclopropylmethyl)-6-ethyl-7H-pyrrolo[2,3-d]pyrimidin-4-yl]-D-phenylalanine] | 6.8e-06 |  |
| CCc1c(-c2cccc(Cl)c2C)c2c(NC(Cc3ccccc3)C(=O)O)ncnc2n1CC(F)(F)F [Example 28, N-[(5Ra)-5-(3-chloro-2-methylphenyl)-6-ethyl-7-(2,2,2-trifluoroethyl)-7H-pyrrolo[2,3-d]pyrimidin-4-yl]-D-phenylalanine] |  | percentage fluorescence polarization inhibition [2]: 63.25% @ 50 μM |
| CCc1c(-c2cccc(Cl)c2C)c2c(NC(Cc3ccccc3)C(=O)O)ncnc2n1CC(F)(F)F [Example 29, N-[(5Sa)-5-(3-chloro-2-methylphenyl)-6-ethyl-7-(2,2,2-trifluoroethyl)-7H-pyrrolo[2,3-d]pyrimidin-4-yl]-D-phenylalanine] | 8.5e-06 |  |
| CCc1c(-c2cccc(Cl)c2C)c2c(N[C@H](Cc3ccccc3)C(=O)O)ncnc2n1C(C)C [Example 38, N-[(5Ra)-5-(3-chloro-2-methylphenyl)-6-ethyl-7-(propan-2-yl)-7H-pyrrolo[2,3-d]pyrimidin-4-yl]-D-phenylalanine] |  | percentage fluorescence polarization inhibition [3]: 67% @ 50 μM |
| CCc1c(-c2cccc(Cl)c2C)c2c(N[C@H](Cc3ccccc3)C(=O)O)ncnc2n1C(C)C [Example 39, N-[(5Sa)-5-(3-chloro-2-methylphenyl)-6-ethyl-7-(propan-2-yl)-7H-pyrrolo[2,3-d]pyrimidin-4-yl]-D-phenylalanine] |  | percentage fluorescence polarization inhibition [3]: 77.75% @ 50 μM |
| CCc1c(-c2ccc(OCCN3CCN(C)CC3)c(Cl)c2C)c2c(OC(Cc3ccccc3)C(=O)O)ncnc2n1Cc1ccccc1 [Example 40, (2R)-2-[(7-benzyl-(5Sa)-5-{3-chloro-2-methyl-4-[2-(4-methylpiperazin-1-yl)ethoxy]phenyl}-6-ethyl-7H-pyrrolo[2,3-d]pyrimidin-4-yl)oxy]-3-phenylpropanoic acid] | 8.6e-07 | IC50 (value after '/', presumably the other FP method (Method 1 / Method 2), read-out: IC50 (M) Mcl-1 FP, second value of the cell): 3.3e-08 M |
| C=CCn1c(Br)c(-c2cccc(Cl)c2C)c2c(NC(Cc3ccccc3)C(=O)O)ncnc21 [Example 43, N-[6-bromo-(5Ra)-5-(3-chloro-2-methylphenyl)-7-(prop-2-en-1-yl)-7H-pyrrolo[2,3-d]pyrimidin-4-yl]-D-phenylalanine] |  | percentage fluorescence polarization inhibition [2]: 66.9% @ 50 μM |
| C=CCn1c(Br)c(-c2cccc(Cl)c2C)c2c(NC(Cc3ccccc3)C(=O)O)ncnc21 [Example 44, N-[6-bromo-(5Sa)-5-(3-chloro-2-methylphenyl)-7-(prop-2-en-1-yl)-7H-pyrrolo[2,3-d]pyrimidin-4-yl]-D-phenylalanine] | 2.5e-06 |  |
| Cc1c(-c2cn(Cc3ccccc3)c3ncnc(O[C@H](Cc4ccccc4)C(=O)O)c23)ccc(OCCN2CCN(C)CC2)c1Cl [Example 45, (2R)-2-[(7-benzyl-5-{3-chloro-2-methyl-4-[2-(4-methylpiperazin-1-yl)ethoxy]phenyl}-7H-pyrrolo[2,3-d]pyrimidin-4-yl)oxy]-3-phenylpropanoic acid] | 1.8e-06 |  |
| Cc1c(Cl)cccc1-c1c2n(c3ncnc(N[C@H](Cc4ccccc4)C(=O)O)c13)CCC2 [Example 46, N-[5-(3-chloro-2-methylphenyl)-7,8-dihydro-6H-pyrimido[5,4-b]pyrrolizin-4-yl]-D-phenylalanine] |  | inhibition at 50 µM (@ 50 μM test compound, partial inhibitors, read-out: percentage fluorescence polarization inhibition): 71% |
| CCc1sc2cccc(OC(Cc3ccccc3)C(=O)O)c2c1-c1ccc(O)c(Cl)c1C [Example 50, (2R)-2-{[(3Ra)-3-(3-chloro-4-hydroxy-2-methylphenyl)-2-ethyl-1-benzothiophen-4-yl]oxy}-3-phenylpropanoic acid] |  | percentage fluorescence polarization inhibition [4]: 65.85% @ 10 μM |
| COc1ccccc1C[C@@H](Oc1cccc2cc(-c3ccc(F)cc3)n(-c3ccc(OCCN4CCN(C)CC4)c(Cl)c3C)c12)C(=O)O [Example 55] |  | percentage fluorescence polarization inhibition [4]: 55.35% @ 10 μM |
| COc1ccccc1CC(Oc1cccc2cc(-c3ccco3)n(-c3ccc(OCCN4CCN(C)CC4)c(Cl)c3C)c12)C(=O)O [Example 58, (2R)-2-{[(1Ra)-1-{3-chloro-2-methyl-4-[2-(4-methylpiperazin-1-yl)ethoxy]phenyl}-2-(furan-2-yl)-1H-indol-7-yl]oxy}-3-(2-methoxyphenyl)propanoic acid] |  | percentage fluorescence polarization inhibition [4]: 51.9% @ 10 μM |
